Molecular target: HPK1 (Homo sapiens (Human), UniProt Q92918)
Assay: HPK1 Kinase Binding Assay
Conditions: active HPK1 (SignalChem M23-11G), tracer 222, LanthaScreen Eu-Anti GST antibody, one hour incubation at 25° C.
Procedure: Example A. HPK1 Kinase Binding Assay
A stock solution of 1 mM test compound was prepared in DMSO. The compound plate was prepared by 3-fold and 11-point serial dilutions. 0.1 μL of the compound in DMSO was transferred from the compound plate to the white 384 well polystyrene plates. The assay buffer contained 50 mM HEPES, pH 7.5, 0.01% Tween-20, 5 mM MgCl2, 0.01% BSA, and 5 mM DTT. 5 μl of 4 nM active HPK1 (SignalChem M23-11G) prepared in the buffer was added to the plate. The enzyme concentration given was based on the given stock concentration reported by the vender. 5 μl of 18 nM tracer 222 (ThermoFisher PV6121) and 4 nM LanthaScreen Eu-Anti GST antibody (ThermoFisher PV5595) were added. After one hour incubation at 25° C., the plates were read on a PHERAstar FS plate reader (BMG Labtech). Ki values were determined.

Sequence of HPK1 (Q92918 1-346): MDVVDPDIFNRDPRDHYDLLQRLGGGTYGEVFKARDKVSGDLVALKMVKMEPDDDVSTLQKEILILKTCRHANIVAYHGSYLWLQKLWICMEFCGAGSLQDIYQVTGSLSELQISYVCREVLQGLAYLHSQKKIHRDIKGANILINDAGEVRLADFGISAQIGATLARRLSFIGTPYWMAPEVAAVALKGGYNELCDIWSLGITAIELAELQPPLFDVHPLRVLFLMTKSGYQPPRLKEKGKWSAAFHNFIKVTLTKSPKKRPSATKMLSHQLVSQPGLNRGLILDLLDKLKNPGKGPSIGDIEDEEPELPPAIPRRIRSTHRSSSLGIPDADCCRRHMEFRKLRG

Q: How did the Ki turn out when `CNCc1cc(C)c(-c2cc3c(-c4ccc(C(=O)NC)cc4)n[nH]c3cc2C#N)c(F)c1` [Example 8, 4-(6-Cyano-5-(2-fluoro-6-methyl-4-((methylamino)methyl)phenyl)-1H-indazol-3-yl)-N-methylbenzamide] was run?
A: ≤ 100 nM

Q: `CNCc1cc(C)c(-c2cc3c(-c4ccc(NC(C)=O)nc4)n[nH]c3cc2C#N)c(F)c1` [Example 29, N-(5-(6-Cyano-5-(2-fluoro-6-methyl-4-((methylamino)methyl)phenyl)-1H-indazol-3-yl)pyridin-2-yl)acetamide] was tested. Which Ki did it give?
A: ≤ 100 nM

Q: Which Ki does the source give for `CNCc1cc(C)c(-c2cc3c(-c4ccc(C(=O)N(C)C)cc4)n[nH]c3cc2C#N)c(F)c1` [Example 9, 4-(6-Cyano-5-(2-fluoro-6-methyl-4-((methylamino)methyl)phenyl)-1H-indazol-3-yl)-N,N-dimethylbenzamide] here?
A: ≤ 100 nM

Q: For `CNCc1cc(C)c(-c2cc3c(-c4cnn(C(C)C)c4)n[nH]c3cc2C#N)c(F)c1` [Example 6, 5-(2-Fluoro-6-methyl-4-((methylamino)methyl)phenyl)-3-(1-isopropyl-1H-pyrazol-4-yl)-1H-indazole-6-carbonitrile], which Ki is on record?
A: ≤ 100 nM

Q: With `CNCc1cc(C)c(-c2cc3c(-c4ccc(C(C)(C)O)nc4)n[nH]c3cc2C#N)c(F)c1` [Example 33, 5-(2-Fluoro-6-methyl-4-((methylamino)methyl)phenyl)-3-(6-(2-hydroxypropan-2-yl)pyridin-3-yl)-1H-indazole-6-carbonitrile] as the molecule, how does the Ki read?
A: ≤ 100 nM

Q: Which Ki does the source give for `Cc1ccccc1-c1cc2c(-c3cnn(C)c3)n[nH]c2cc1C#N` [Example 48, 3-(1-Methyl-1H-pyrazol-4-yl)-5-o-tolyl-1H-indazole-6-carbonitrile] here?
A: ≤ 100 nM

Q: For `CNCc1cc(C)c(-c2cc3c(-c4ccc(S(=O)(=O)C(C)C)cc4)n[nH]c3cc2C#N)c(F)c1` [Example 25, 5-(2-Fluoro-6-methyl-4-((methylamino)methyl)phenyl)-3-(4-(isopropylsulfonyl)phenyl)-1H-indazole-6-carbonitrile], which Ki is on record?
A: ≤ 100 nM

Q: How did the Ki turn out when `CNCc1cc(C)c(-c2cc3c(-c4ccc(N5CC(CO)C5)nc4)n[nH]c3cc2C#N)c(F)c1` [Example 44, 5-(2-Fluoro-6-methyl-4-((methylamino)methyl)phenyl)-3-(6-(3-(hydroxymethyl)azetidin-1-yl)pyridin-3-yl)-1H-indazole-6-carbonitrile] was run?
A: ≤ 100 nM

Q: How did the Ki turn out when `CNCc1cc(C)c(-c2cc3c(-c4cnc(N5CCN(C)CC5)nc4)n[nH]c3cc2C#N)c(F)c1` [Example 27, 5-(2-Fluoro-6-methyl-4-((methylamino)methyl)phenyl)-3-(2-(4-methylpiperazin-1-yl)pyrimidin-5-yl)-1H-indazole-6-carbonitrile] was run?
A: ≤ 100 nM

Q: With `CNCc1cc(C)c(-c2cc3c(-c4ccc(C(=O)NC)c(F)c4)n[nH]c3cc2C#N)c(F)c1` [Example 17, 4-(6-Cyano-5-(2-fluoro-6-methyl-4-((methylamino)methyl)phenyl)-1H-indazol-3-yl)-2-fluoro-N-methylbenzamide] as the molecule, how does the Ki read?
A: ≤ 100 nM

Q: Which Ki does the source give for `COc1cccc(F)c1-c1cc2c(-c3cnn(C)c3)n[nH]c2cc1C#N` [Example 50, 5-(2-Fluoro-6-methoxyphenyl)-3-(1-methyl-1H-pyrazol-4-yl)-1H-indazole-6-carbonitrile] here?
A: ≤ 100 nM

Q: How did the Ki turn out when `CNCc1cc(C)c(-c2cc3c(-c4cccc(OC)c4)n[nH]c3cc2C#N)c(F)c1` [Example 12, 5-(2-Fluoro-6-methyl-4-((methylamino)methyl)phenyl)-3-(3-methoxyphenyl)-1H-indazole-6-carbonitrile] was run?
A: ≤ 100 nM

Q: For `CNCc1cc(C)c(-c2cc3c(-c4cccc(N5CCN(C)CC5)n4)n[nH]c3cc2C#N)c(F)c1` [Example 46, 5-(2-Fluoro-6-methyl-4-((methylamino)methyl)phenyl)-3-(6-(4-methylpiperazin-1-yl)pyridin-2-yl)-1H-indazole-6-carbonitrile], which Ki is on record?
A: ≤ 100 nM

Q: With `CC[C@@H](C)Nc1ccc(-c2n[nH]c3cc(C#N)c(-c4c(C)cc(CNC)cc4F)cc23)cn1` [Example 43, 3-(6-(((R)-sec-Butyl)amino)pyridin-3-yl)-5-(2-fluoro-6-methyl-4-((methylamino)methyl)phenyl)-1H-indazole-6-carbonitrile] as the molecule, how does the Ki read?
A: ≤ 100 nM

Reference: US10722495B2, “Cyanoindazole compounds and uses thereof” (Incyte Corporation, priority 2017, dated 2020)
